The test system of experiment [1] is Alopecurus japonicus. The experiment can be described thus: Herbicidal activity against haloxyfop-R-methyl-sensitive Alopecurus japonicus (Japanese foxtail) biotype Js-S assessed as inhibition of shoot length after 14 days. It counts as functional.
The subject of experiment [2] is Alopecurus japonicus. The experiment in a line: Herbicidal activity against haloxyfop-R-methyl-resistant Alopecurus japonicus (Japanese foxtail) biotype Js-R assessed as inhibition of shoot length after 14 days. It counts as functional.
For experiment [3], the system named is Alopecurus japonicus. The experiment can be described thus: Resistance index, ratio of ED50 for haloxyfop-R-methyl-resistant Alopecurus japonicus (Japanese foxtail) biotype Js-R to ED50 for haloxyfop-R-methyl-sensitive Alopecurus japonicus (Japanese foxtail) biotype Js-S. It counts as functional.
Experiment [4] addresses T1, ACCase (Alopecurus japonicus, UniProt H9BT73). The experiment can be described thus: Inhibition of Acetyl-CoA carboxylase (ACCase) in haloxyfop-R-methyl-sensitive Alopecurus japonicus (Japanese foxtail) biotype Js-S shoot extracts. The conditions noted are these: read-out: I50.
The target of experiment [5] is T1, ACCase. The experiment can be described thus: Inhibition of Acetyl-CoA carboxylase (ACCase) in haloxyfop-R-methyl-resistant Alopecurus japonicus (Japanese foxtail) biotype Js-R shoot extracts. The conditions noted are these: read-out: I50.
Experiment [6] concerns the target ACCase (Alopecurus japonicus) (UniProt H9BT73). The experiment can be described thus: Resistance index, ratio of I50 for ACCase in haloxyfop-R-methyl-resistant Alopecurus japonicus (Japanese foxtail) biotype Js-R to I50 for Acetyl-CoA carboxylase (ACCase) in haloxyfop-R-methyl-sensitive Alopecurus japonicus (Japanese foxtail) biotype Js-S.

pIC50: −log10 of the molar value.

`CCCCOC(=O)[C@H](C)Oc1ccc(Oc2ccc(C#N)cc2F)cc1` [CYHALOFOP-BUTYL]: the results for the ED50 with Alopecurus japonicus [1] and in the experiment with Alopecurus japonicus [2] were 0.144 mg/m2 and 0.698 mg/m2, respectively. The Ratio with Alopecurus japonicus [3] was determined as 4.85.

As for `C#CCOC(=O)[C@@H](C)Oc1ccc(Oc2ncc(Cl)cc2F)cc1` [CLODINAFOP PROPARGYL], the ED50 is recorded as 0.721 mg/m2 in the experiment on Alopecurus japonicus [1] and 4.209 mg/m2 in the experiment on Alopecurus japonicus [2]. In addition, the Ratio with Alopecurus japonicus [3] worked out at 5.84.

Regarding `CCOC(=O)[C@@H](C)Oc1ccc(Oc2nc3ccc(Cl)cc3o2)cc1` [FENOXAPROP-P-ETHYL], the ED50 is reported as 0.114 mg/m2 with Alopecurus japonicus [1] and 1.289 mg/m2 in the experiment on Alopecurus japonicus [2]. Moreover, in the experiment with Alopecurus japonicus [3], the Ratio is reported as 11.35.

For the molecule `CCOC(=O)[C@@H](C)Oc1ccc(Oc2cnc3cc(Cl)ccc3n2)cc1` [QUIZALOFOP-P-ETHYL], the ED50 amounted to 0.426 mg/m2 with Alopecurus japonicus [1] and 15.283 mg/m2 in the experiment with Alopecurus japonicus [2]. In addition, the Ratio with Alopecurus japonicus [3] amounted to 35.87.

Regarding `CC(Oc1ccc(Oc2ncc(C(F)(F)F)cc2Cl)cc1)C(=O)O` (stereo not given) [HALOXYFOP], the pIC50 on ACCase [4] was 8.59; at ACCase [5], 7.55. For the same molecule, in experiment [6], the Ratio amounted to 10.8.

For the origin of these results see ChEMBL document CHEMBL3046123, “Molecular bases for resistance to acetyl-coenzyme A carboxylase inhibitor in Japanese foxtail (Alopecurus japonicus)” (Pest Manag Sci, 2012).
